# Test system: mouse derived immortalized melanocyte cells (M3)
# Experiment: Suppression of melanogenesis in vitro (melanin extracted, optical density at 405 nm; visual count of melanized cells)
# Format: cell-based
# Details: Treatment Dose 0.100%; M3 melanocytes, treated days 1, 3, 5; melanin extracted day 6, OD 405 nm
compound,measurement,value
O=C1O[C@H]([C@@H](O)CO)C(O)=C1O [Ascorbic Acid],% Control Melanin,51%

# Source: patent publication US7247321B2, “Skin whitening compositions containing asparagus extract” (Access Business Group International LLC, priority 2003, dated 2007)
